The values below are quoted from earlier work in Sander's compilation of Henry's law constants.

This series can be described thus: Henry solubility constant Hcp at 298.15 K (mol/(m3 Pa)). As to conditions: cited value.
[1] abbreviates: reference: Burkholder et al. (2015).
The mark [2] stands for this setting: reference: Burkholder et al. (2019).
The mark [3] stands for this setting: reference: Sander et al. (2006).
Setting [4] is: reference: Sander et al. (2011).
Setting [5] is: reference: Hine and Weimar (1965).
The mark [6] stands for this setting: reference: Horvath and Getzen (1999).

As for `ClC(Cl)C(Cl)Cl` [1,1,2,2-tetrachloroethane], the “Henry solubility constant Hcp” value is 0.018 (reference: Barr and Newsham (1987)); 0.024 (reference: Brockbank (2013)); 0.023 under setting [1]; 0.023 under setting [2]; 0.023 (reference: Goldstein (1982)).
On to `Clc1cccc(Cl)c1Cl` [1,2,3-trichlorobenzene], for which, for the setting “reference: Brockbank (2013)”, the “Henry solubility constant Hcp” value is 0.0062.
Turning to `CN1CCCC1=O` [N-methyl-2-pyrrolidone], the “Henry solubility constant Hcp” value (reference: Brockbank (2013)) is 3100.
In the case of `CC(C)CO` [2-methyl-1-propanol], the “Henry solubility constant Hcp” value was 0.8 (reference: Brockbank (2013)); 0.83 under setting [1]; 0.83 under setting [2]; 1 under setting [3]; 1 under setting [4].
For `[HH]` [hydrogen], the “Henry solubility constant Hcp” value is, setting by setting: (reference: Himmelblau (1960)) 7.8e-06; under setting [5], 7.7e-06; (reference: Young (1981a)) 7.7e-06.
Consider `OCCCCO` [1,4-butanediol], for which the “Henry solubility constant Hcp” value runs as follows: under setting [1], 35000; under setting [2], 35000.
With `ClC=CCCl` [1,3-dichloropropene], the “Henry solubility constant Hcp” value by setting is: (reference: Barcelo and Hennion (1997)) 2.4e-05; (reference: Goldstein (1982)) 0.0028; under setting [6], 0.0028.
With `CCCCCCC(=O)CC` [3-nonanone], the “Henry solubility constant Hcp” value (reference: Brockbank (2013)) is 0.051.
With `Cc1cccc(O)c1` [1-hydroxy-3-methylbenzene], the “Henry solubility constant Hcp” value was 12 (reference: Brockbank (2013)) and 11 (reference: Howard (1989)).
On to `Cc1ccccc1` [methylbenzene], for which the “Henry solubility constant Hcp” value was 0.0019 (reference: Brockbank (2013)), 0.0015 (reference: Goldstein (1982)) and 0.0015 (reference: McAuliffe (1971)).
`CCOC(=O)CCl` [ethyl chloroethanoate]: where the note is “reference: Brockbank (2013)”, the “Henry solubility constant Hcp” value was 0.26.
With `CC(C)c1nn(C(=O)NC(C)(C)C)c(=O)n1N` [amicarbazone], the “Henry solubility constant Hcp” value (reference: MacBean (2012b)) is 1.5e+07.
With `CC(C)C(C)C` [2,3-dimethylbutane], the “Henry solubility constant Hcp” value (reference: Brockbank (2013)) is 8e-06.
Turning to `[Ar]` [argon], the “Henry solubility constant Hcp” value (reference: Clever (1980)) was 1.4e-05.
`CCCCC#N` [pentanenitrile]: the “Henry solubility constant Hcp” value (reference: Brockbank (2013)) is 0.16 and the “Henry solubility constant Hcp” value (reference: Plyasunov et al. (2006)) is 0.14.
Turning to `[He]` [helium], the “Henry solubility constant Hcp” value runs as follows: (reference: Clever (1979a)) 3.8e-06; (reference: Himmelblau (1960)) 3.7e-06.
Take `COC(C)=O` [methyl ethanoate]: the “Henry solubility constant Hcp” value was 0.085 (reference: Brockbank (2013)) and 0.085 under setting [2].
In the case of `CCCC(O)CC` (centres undefined) [3-hexanol], the “Henry solubility constant Hcp” value (reference: Brockbank (2013)) is 0.37.
Turning to `OO` [hydrogen peroxide], the “Henry solubility constant Hcp” value was 950 (reference: Brockbank (2013)); 860 under setting [1]; 860 under setting [2]; 980 (reference: Fogg and Sangster (2003)); 760 under setting [3]; 830 under setting [4].
For the compound `[H]` [hydrogen atom], the “Henry solubility constant Hcp” value runs as follows: under setting [1], 2.6e-06; under setting [2], 2.6e-06; under setting [3], 2.6e-06; under setting [4], 2.6e-06.
On to `CCCCOC(=O)CC` [butyl propanoate], for which the “Henry solubility constant Hcp” value (reference: Brockbank (2013)) is 0.022.
As for `C[C@@H]1CCCC[C@@H]1C` [cis-1,2-dimethylcyclohexane], the “Henry solubility constant Hcp” value (reference: Brockbank (2013)) is 2.6e-05.
Take `COC` [dimethyl ether]: under setting [5], the “Henry solubility constant Hcp” value is 0.0098.
For the compound `CC(Cl)CCl` (centres undefined) [1,2-dichloropropane], the “Henry solubility constant Hcp” value (reference: Brockbank (2013)) was 0.0034; the “Henry solubility constant Hcp” value under setting [1] is 0.0034; the “Henry solubility constant Hcp” value under setting [2] is 0.0034; the “Henry solubility constant Hcp” value (reference: Goldstein (1982)) is 0.0034; the “Henry solubility constant Hcp” value under setting [6] is 0.0035.
On to `Cc1ccc(N=CN(C)C=Nc2ccc(C)cc2C)c(C)c1` [amitraz], for which the “Henry solubility constant Hcp” value (reference: MacBean (2012b)) is 1.
Consider `BrC(Br)C(Br)Br` [1,1,2,2-tetrabromoethane], for which the “Henry solubility constant Hcp” value reads like this: (reference: Brockbank (2013)) 0.014; under setting [2], 0.014.
Take `CCCC(=O)CC` [3-hexanone]: the “Henry solubility constant Hcp” value (reference: Brockbank (2013)) is 0.079.
